target: ACAT; assay: Evaluation of ACAT inhibitory activity (rat liver enzyme preparation, [14C]-oleoyl CoA substrate); format: biochemical; conditions: ACAT from liver of rats on high-cholesterol feed; 30° C.; pIC50 from concentration-response curve by the nonlinear least square method
Description: IR (cm^−1) (KBr): • 1517, 1521, 2962. Test (Evaluation of ACAT Inhibitory Activity) (1) Preparation of the Enzyme (ACAT)
(1-1) Each rat was reared for about 3 weeks on high-cholesterol feed (solid feed prepared by adding 1% of cholesterol, 0.3% of sodium cholate, 0.1% of propylthiouracil and 3% of lard to a conventional feed MF).
(1-2) The liver of the rat reared in (1-1) was collected and shredded. 10 mM HEPES buffer (pH 7.4) which contained 0.25 M of sucrose and 1 mM of EDTA was added in an amount about three times as much as the weight of the liver to suspend the latter. The liver was then homogenized by a glass-Teflon homogenizer.
(1-3) The homogenized liver was centrifuged for 15 minutes under 22000×g, and the supernatant was collected.
(1-4) The supernatant was centrifuged further for 60 minutes under 100000×g. To the precipitates, 10 mM HEPES buffer (pH 7.4) containing 0.25 M of sucrose and 1 mM of EDTA therein was added in about a half of the volume used in (1-2), and the precipitates were suspended again.
(1-5) The suspension was again centrifuged for 60 minutes under 100000×g, and the resulting precipitates were collected. 10 mM HEPES buffer (pH 7.4) containing 0.25 M of sucrose and 2 mM of DTT therein was added to suspend the precipitates. The suspension was stored at −80° C.
(2) Preparation of Reagents
0.75 M Phosphate buffer (pH 7.4), 800 μM BSA and 100 mM DTT were mixed together in amounts of 1.0 mL, 0.5 mL and 0.1 mL, respectively, and ultrapure water (3.4 mL) was added.
A refrigerated sample of the enzyme was diluted with the “reaction buffer” described above to 2.5 mg protein/mL.
10^−3 M Solutions of the compounds to be evaluated were prepared with methanol. 3×10^−4 M Solutions were each prepared by adding 50% methanol (700 μL) to the corresponding 10^−3 M solution (300 μL). 10^−4 M Solutions were each prepared by adding 50% methanol (600 μL) to the corresponding […] solution (300 μL). Up to 10^−7 M solutions (serial 3-fold dilutions), the solutions were prepared by a similar procedure.
(3) Assay Method of ACAT Activity
(3-1) ACAT (20 μL), the reaction buffer (20 μL) and desired one (5 μL) of test samples were placed in a 1.5 mL test tube and incubated at 30° C. for 10 minutes (the resulting solution will hereinafter be called “I”).
(3-2) Reaction substrate [^14C]-oleoyl CoA (5 μL) was added into “I”, and was allowed to react at 30° C. for 4 minutes.
(3-3) Four minutes later, methanol (250 μL) was added to terminate the reaction, and then, a lipid mixture (40 μL), recovery-percentage-correcting [^3H]-cholesteryl oleate (10 μL) and hexane (700 μL) were added into the test tube (this solution will hereinafter be called “II”).
(3-4) “II” was stirred in a mixer, and the hexane layer (500 μL) was collected and transferred into another test tube (this solution will hereinafter be called “III”).
(3-5) “III” was evaporated to dryness, dissolved in chloroform (10 μL), and then spotted on a TLC plate. At that time, cholesteryl oleate was also spotted.
(3-6) After the spots were dried, they were developed with a 85:15:0.5 mixture of hexane, diethyl ether and acetic acid as a developer solvent, and then stained with iodine. A plate section corresponding to the spot of cholesteryl oleate was cut out and placed in a vial. At the same time, the reaction substrate [^14C]-oleoyl CoA (5 μL) and the recovery-percentage-correcting [^3H]-cholesteryl oleate (10 μL) were spotted on the TLC plate, and similarly, plate sections were cut out and placed in vials, respectively.
(3-7) Subsequently, “Aquazole II” (about 10 mL) was added to the vials. After the vials were allowed to stand for a while, they were measured for [^14C] and [^3H] radioactivities.
Using the radioactivities, the % recovery of [^14C]-cholesteryl oleate formed by the enzymatic reaction was calculated from the radioactivity of [^3H], and from the radioactivity of [^14C], the yield of cholesteryl oleate was calculated. […]

In order of falling PIC50:
1. CCCCCN(Cc1ccc(-c2ccccc2NC(=O)C(F)(F)F)cc1)C(=O)Nc1c(F)cc(F)cc1F [Compound of the formula (10), N′-Pentyl-N′-[[2′-[[(trifluoromethyl)carbonyl]-amino]-1,1′-biphenyl-4-yl]methyl]-N-(2,4,6-trifluorophenyl)urea]  6.57
2. CCCCCCCN(Cc1ccc(-c2ccccc2S(=O)(=O)NC(=O)Nc2c(C(C)C)cccc2C(C)C)cc1)C(=O)Nc1c(F)cc(F)cc1F [Compound of the formula (12), N′-[[2′-[[[[(2,6-Diisopropylphenyl)amino]-carbonyl]amino]sulfonyl]-1,1′-biphenyl-4-yl]methyl]-N′-heptyl-N-(2,4,6-trifluorophenyl)urea]  6.40
3. CCCCCCCN(Cc1ccc(-c2ccccc2-c2nnn[nH]2)cc1)C(=O)Nc1c(F)cc(F)cc1F [Compound of the formula (7), N′-Heptyl-N′-[[2′-(1H-tetrazol-5-yl)-1,1′-biphenyl-4-yl]methyl]-N-(2,4,6-trifluorophenyl)urea]  6.23
4. CCCCCN(Cc1ccc(-c2ccccc2-c2nnn[nH]2)cc1)C(=O)Nc1c(C(C)C)cccc1C(C)C [Compound of the formula (4), N-(2,6-Diisopropylphenyl)-N′-pentyl-N′-[[2′-(1H-tetrazol-5-yl)-1,1′-biphenyl-4-yl]methyl]urea]  5.72
5. CCCCCN(Cc1ccc(-c2ccccc2NS(=O)(=O)C(F)(F)F)cc1)C(=O)Nc1c(F)cc(F)cc1F [Compound of the formula (11), N′-Pentyl-N′-[[2′-[[(trifluoromethyl)sulfonyl]-amino]-1,1′-biphenyl-4-yl]methyl]-N-(2,4,6-trifluorophenyl)urea]  5.71
6. CCCCCN(Cc1ccc(-c2ccccc2-c2nnn[nH]2)cc1)C(=O)Nc1c(C)cc(C)cc1C [Compound of the formula (5), N′-Pentyl-N′-[[2′-(1H-tetrazol-5-yl)-1,1′-biphenyl-4-yl]methyl]-N-(2,4,6-trimethylphenyl)urea]  5.65
7. CCCCCN(Cc1ccc(-c2ccccc2-c2nnn[nH]2)cc1)C(=O)Nc1c(F)cc(F)cc1F [Compound of the formula (6), N′-Pentyl-N′-[[2′-(1H-tetrazol-5-yl)-1,1′-biphenyl-4-yl]methyl]-N-(2,4,6-trifluorophenyl)urea]  5.52
8. CCCCCCCN(Cc1ccc(-c2ccccc2-c2nnn[nH]2)cc1)C(=O)Nc1ccc(F)cc1F [Compound of the formula (8), N-(2,4-Difluorophenyl)-N′-heptyl-N′-[[2′-(1H-tetrazol-5-yl)-1,1′-biphenyl-4-yl]methyl]urea]  5.49
9. CCCCCN(CC(=O)Nc1c(C(C)C)cccc1C(C)C)Cc1ccc(-c2ccccc2-c2nnn[nH]2)cc1 [Compound of the formula (13), N-[[[(2,6-Diisopropylphenyl)amino]carbonyl]methyl]-N-pentyl-N-[[2′-(1H-tetrazol-5-yl)-1,1′-biphenyl-4-yl]methyl]amine]  5.39
10. CCCCCN(CC(=O)Nc1c(C)cc(C)cc1C)Cc1ccc(-c2ccccc2-c2nnn[nH]2)cc1 [Compound of the formula (14), N-Pentyl-N-[[2′-(1H-tetrazol-5-yl)-1,1′-biphenyl-4-yl]methyl]-N-[[[(2,4,6-trimethylphenyl)amino]-carbonyl]methyl]amine]  5.23
11. CCCCCN(CC(=O)Nc1c(F)cc(F)cc1F)Cc1ccc(-c2ccccc2-c2nnn[nH]2)cc1 [Compound of the formula (15), N-Pentyl-N-[[2′-(1H-tetrazol-5-yl)-1,1′-biphenyl-4-yl]methyl]-N-[[[(2,4,6-trifluorophenyl)amino]-carbonyl]methyl]amine]  5.21
12. CCCCCCCN(Cc1ccc(-c2ccccc2-c2nnn[nH]2)cc1)C(=O)NC1CCCCC1 [Compound of the formula (9), N-Cyclohexyl-N′-heptyl-N′-[[2′-(1H-tetrazol-5-yl)-1,1′-biphenyl-4-yl]methyl]urea]  5.18

— US7531576B2, “Biphenyl derivatives” (Pola Chemical Industries, Inc., priority 2000, dated 2009)
